What was measured:
Assay in all cases: Mammalian kinase profiling (DSTT panel)
Type in all cases: biochemical
IRR = target: T1, IRR (Homo sapiens, UniProt P14616); conditions: 10 μM; average percentage of remaining activity
T1 construct: purchased Division of Signal Transduction Therapy (DSTT), University of Dundee
Experimental: (§1) To assess the selectivity of the aminopyrazole inhibitors, remaining activity at 10 μM concentration was measured for compounds 4f, 4m, and 4y against a panel of 80 human PKs and for compound 9g against 124 human PKs. […] Compound 4m inhibited only two PKs, namely GSK3β and CDK2, at more than 80%.
(§2) Selected compounds were screened against a panel of mammalian kinases routinely run by the Division of Signal Transduction Therapy (DSTT) at the University of Dundee in duplicate at 10 μM.[32] Enzymes included in the panel and assay conditions are reported in the literature. All biochemical assays are run below the Km^app for the ATP for each enzyme, allowing comparison of inhibition across the panel.

SRPK1 = target: T2, SRPK1 (Homo sapiens, UniProt Q96SB4); conditions: 10 μM; average percentage of remaining activity
T2 construct: purchased Division of Signal Transduction Therapy (DSTT), University of Dundee
Experimental: as §1, §2

MNK1 = target: T3, MNK1 (Homo sapiens, UniProt Q9BUB5); conditions: 10 μM; average percentage of remaining activity
T3 construct: purchased Division of Signal Transduction Therapy (DSTT), University of Dundee
Experimental: as §1, §2

S6K1 = target: T4, S6K1 (Homo sapiens, UniProt P23443); conditions: 10 μM; average percentage of remaining activity
T4 construct: purchased Division of Signal Transduction Therapy (DSTT), University of Dundee
Experimental: as §1, §2

MST2 = target: T5, MST2 (Homo sapiens, UniProt Q13188); conditions: 10 μM; average percentage of remaining activity
T5 construct: purchased Division of Signal Transduction Therapy (DSTT), University of Dundee
T5 sequence (Q13188 1-491): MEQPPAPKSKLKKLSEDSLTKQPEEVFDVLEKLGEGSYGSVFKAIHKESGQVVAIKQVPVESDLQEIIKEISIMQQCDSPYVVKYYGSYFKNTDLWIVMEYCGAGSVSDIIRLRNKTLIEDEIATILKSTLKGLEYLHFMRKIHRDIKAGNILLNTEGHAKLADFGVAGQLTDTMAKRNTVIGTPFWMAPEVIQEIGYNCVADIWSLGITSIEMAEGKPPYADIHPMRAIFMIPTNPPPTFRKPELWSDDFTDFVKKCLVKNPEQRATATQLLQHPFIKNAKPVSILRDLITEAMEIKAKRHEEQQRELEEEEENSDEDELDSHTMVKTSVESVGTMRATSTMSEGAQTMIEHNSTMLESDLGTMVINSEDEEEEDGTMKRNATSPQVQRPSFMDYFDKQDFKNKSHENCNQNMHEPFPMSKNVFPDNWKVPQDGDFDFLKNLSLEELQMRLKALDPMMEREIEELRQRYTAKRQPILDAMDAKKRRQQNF
Experimental: as §1, §2

PKBb = target: T6, PKBb (Homo sapiens, UniProt P31751); conditions: average percentage of remaining activity, read-out: PKBb activity compared to the control
T6 construct: purchased Division of Signal Transduction Therapy (DSTT), University of Dundee
Experimental: as §1, §2

SGK1 = target: T7, SGK1 (Homo sapiens, UniProt O00141); conditions: 10 μM; average percentage of remaining activity
T7 construct: purchased Division of Signal Transduction Therapy (DSTT), University of Dundee
T7 sequence (O00141 1-431): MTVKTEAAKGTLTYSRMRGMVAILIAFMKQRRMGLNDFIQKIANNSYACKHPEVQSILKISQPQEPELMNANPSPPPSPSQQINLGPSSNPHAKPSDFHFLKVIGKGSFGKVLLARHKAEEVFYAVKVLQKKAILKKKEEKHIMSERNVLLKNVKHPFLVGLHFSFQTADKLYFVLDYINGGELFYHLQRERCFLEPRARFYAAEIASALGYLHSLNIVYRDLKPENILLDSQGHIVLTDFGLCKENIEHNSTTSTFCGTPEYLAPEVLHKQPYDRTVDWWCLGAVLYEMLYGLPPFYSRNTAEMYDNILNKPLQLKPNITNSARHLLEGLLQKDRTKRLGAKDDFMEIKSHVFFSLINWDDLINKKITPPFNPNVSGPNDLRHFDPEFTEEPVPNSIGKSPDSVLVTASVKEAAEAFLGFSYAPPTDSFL
Experimental: as §1, §2

IR-HIS = target: T8, IR-HIS (Homo sapiens, UniProt P06213); conditions: 10 μM; average percentage of remaining activity
T8 construct: purchased Division of Signal Transduction Therapy (DSTT), University of Dundee
Experimental: as §1, §2

PDK1 = target: T9, PDK1 (Homo sapiens, UniProt O15530); conditions: 10 μM; average percentage of remaining activity
T9 construct: purchased Division of Signal Transduction Therapy (DSTT), University of Dundee
T9 sequence (O15530 1-556): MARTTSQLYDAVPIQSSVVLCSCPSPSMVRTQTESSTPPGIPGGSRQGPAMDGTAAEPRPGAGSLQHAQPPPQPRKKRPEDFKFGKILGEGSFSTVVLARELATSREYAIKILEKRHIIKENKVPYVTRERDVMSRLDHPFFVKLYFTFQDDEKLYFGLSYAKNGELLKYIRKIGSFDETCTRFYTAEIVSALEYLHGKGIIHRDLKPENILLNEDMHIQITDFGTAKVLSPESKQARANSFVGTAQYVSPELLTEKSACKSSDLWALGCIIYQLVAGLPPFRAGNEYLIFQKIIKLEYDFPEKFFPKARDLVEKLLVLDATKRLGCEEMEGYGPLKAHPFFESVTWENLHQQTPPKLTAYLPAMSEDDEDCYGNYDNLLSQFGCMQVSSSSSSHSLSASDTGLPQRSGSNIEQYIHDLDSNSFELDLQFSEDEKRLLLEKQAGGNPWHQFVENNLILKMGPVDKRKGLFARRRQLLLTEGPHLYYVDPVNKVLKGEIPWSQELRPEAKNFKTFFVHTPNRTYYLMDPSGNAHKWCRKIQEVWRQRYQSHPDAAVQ
Experimental: as §1, §2

CHK2 = target: T10, CHK2 (Homo sapiens, UniProt O96017); conditions: 10 μM; average percentage of remaining activity
T10 construct: purchased Division of Signal Transduction Therapy (DSTT), University of Dundee
Experimental: as §1, §2

EPH A2 = target: T11, EPH A2 (Homo sapiens, UniProt P29317); conditions: 10 μM; average percentage of remaining activity
T11 construct: purchased Division of Signal Transduction Therapy (DSTT), University of Dundee
Experimental: as §1, §2

P38g MAPK = target: T12, P38g MAPK (Homo sapiens, UniProt P53778); conditions: 10 μM; average percentage of remaining activity
T12 construct: purchased Division of Signal Transduction Therapy (DSTT), University of Dundee
T12 sequence (P53778 1-367): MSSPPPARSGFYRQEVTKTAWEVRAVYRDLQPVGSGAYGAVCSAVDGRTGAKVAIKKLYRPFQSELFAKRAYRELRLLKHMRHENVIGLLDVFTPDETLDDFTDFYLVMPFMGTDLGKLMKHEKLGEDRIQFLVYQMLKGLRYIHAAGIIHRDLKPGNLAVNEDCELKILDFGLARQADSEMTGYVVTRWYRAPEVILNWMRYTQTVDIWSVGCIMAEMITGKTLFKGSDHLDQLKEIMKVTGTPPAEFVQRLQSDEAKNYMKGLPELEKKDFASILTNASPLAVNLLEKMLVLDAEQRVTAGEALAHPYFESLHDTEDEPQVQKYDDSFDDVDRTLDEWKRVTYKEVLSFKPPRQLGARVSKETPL
Experimental: as §1, §2

CK1 = target: T13, CK1 (Homo sapiens, UniProt P48730); conditions: 10 μM; average percentage of remaining activity
T13 construct: purchased Division of Signal Transduction Therapy (DSTT), University of Dundee
Experimental: as §1, §2

T10 sequence (O96017 whole entry): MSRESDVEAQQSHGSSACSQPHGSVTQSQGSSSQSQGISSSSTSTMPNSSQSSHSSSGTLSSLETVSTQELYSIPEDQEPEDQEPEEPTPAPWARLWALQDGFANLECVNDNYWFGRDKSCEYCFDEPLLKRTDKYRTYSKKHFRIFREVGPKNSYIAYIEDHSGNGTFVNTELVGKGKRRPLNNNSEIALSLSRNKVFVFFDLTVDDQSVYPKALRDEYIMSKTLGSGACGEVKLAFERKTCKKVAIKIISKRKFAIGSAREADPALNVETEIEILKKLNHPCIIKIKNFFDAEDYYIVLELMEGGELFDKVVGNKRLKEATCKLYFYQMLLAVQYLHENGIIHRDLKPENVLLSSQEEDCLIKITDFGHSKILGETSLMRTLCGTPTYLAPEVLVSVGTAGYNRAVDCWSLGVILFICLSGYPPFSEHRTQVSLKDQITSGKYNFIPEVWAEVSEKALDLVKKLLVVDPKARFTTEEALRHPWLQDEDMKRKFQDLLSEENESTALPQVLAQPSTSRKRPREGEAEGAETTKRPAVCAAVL
T2 sequence (Q96SB4 whole entry): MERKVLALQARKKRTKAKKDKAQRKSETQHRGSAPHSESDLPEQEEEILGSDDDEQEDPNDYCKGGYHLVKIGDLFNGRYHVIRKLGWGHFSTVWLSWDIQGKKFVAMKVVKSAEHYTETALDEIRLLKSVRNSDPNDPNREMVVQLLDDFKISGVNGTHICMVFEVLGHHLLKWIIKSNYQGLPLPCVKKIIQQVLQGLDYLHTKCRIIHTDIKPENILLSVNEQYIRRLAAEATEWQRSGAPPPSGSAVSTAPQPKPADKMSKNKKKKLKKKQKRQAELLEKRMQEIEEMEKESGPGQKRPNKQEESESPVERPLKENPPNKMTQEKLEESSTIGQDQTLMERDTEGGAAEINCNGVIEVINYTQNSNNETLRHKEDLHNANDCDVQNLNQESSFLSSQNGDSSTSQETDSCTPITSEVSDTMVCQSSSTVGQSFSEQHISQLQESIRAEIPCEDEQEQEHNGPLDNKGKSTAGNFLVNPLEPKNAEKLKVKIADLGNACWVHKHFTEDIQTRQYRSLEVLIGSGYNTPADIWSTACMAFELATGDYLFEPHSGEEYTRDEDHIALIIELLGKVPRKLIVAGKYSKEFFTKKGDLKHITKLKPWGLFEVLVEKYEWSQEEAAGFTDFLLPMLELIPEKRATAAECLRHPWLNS
T8 sequence (P06213 28-1382): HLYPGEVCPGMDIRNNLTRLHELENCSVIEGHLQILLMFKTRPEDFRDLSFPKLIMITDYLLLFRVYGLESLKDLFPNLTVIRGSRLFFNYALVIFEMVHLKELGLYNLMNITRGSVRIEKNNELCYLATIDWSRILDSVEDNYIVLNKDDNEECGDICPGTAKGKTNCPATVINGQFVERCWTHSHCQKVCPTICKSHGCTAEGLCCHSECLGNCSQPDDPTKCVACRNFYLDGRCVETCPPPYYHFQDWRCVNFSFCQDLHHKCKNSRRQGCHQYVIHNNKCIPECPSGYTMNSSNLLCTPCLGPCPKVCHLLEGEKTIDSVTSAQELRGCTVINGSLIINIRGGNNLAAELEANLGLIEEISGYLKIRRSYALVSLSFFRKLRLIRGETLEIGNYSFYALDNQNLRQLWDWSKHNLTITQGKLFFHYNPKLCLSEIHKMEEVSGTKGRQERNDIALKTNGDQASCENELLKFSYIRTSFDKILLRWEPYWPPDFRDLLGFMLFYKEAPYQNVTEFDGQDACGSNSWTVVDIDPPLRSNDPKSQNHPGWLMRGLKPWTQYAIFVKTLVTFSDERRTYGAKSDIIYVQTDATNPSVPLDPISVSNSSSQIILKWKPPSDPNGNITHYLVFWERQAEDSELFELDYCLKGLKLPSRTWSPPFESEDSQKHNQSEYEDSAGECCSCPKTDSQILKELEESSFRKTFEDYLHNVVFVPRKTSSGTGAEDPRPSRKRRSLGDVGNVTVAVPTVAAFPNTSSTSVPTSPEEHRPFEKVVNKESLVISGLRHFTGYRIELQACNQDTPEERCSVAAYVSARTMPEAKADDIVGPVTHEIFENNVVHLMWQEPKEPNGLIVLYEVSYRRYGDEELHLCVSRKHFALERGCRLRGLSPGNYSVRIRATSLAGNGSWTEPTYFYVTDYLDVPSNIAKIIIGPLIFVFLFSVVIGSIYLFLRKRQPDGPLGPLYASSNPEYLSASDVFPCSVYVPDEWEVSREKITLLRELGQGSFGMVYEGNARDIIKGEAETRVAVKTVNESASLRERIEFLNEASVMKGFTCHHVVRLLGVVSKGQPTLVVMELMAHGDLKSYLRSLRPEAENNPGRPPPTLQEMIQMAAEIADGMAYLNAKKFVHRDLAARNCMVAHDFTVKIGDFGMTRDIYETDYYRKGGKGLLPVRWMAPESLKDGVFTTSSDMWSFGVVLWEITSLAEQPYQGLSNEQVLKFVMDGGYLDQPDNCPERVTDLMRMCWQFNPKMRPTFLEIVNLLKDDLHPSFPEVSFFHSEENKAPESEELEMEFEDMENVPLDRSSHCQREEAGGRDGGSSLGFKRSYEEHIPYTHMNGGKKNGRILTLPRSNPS
T11 sequence (P29317 24-976): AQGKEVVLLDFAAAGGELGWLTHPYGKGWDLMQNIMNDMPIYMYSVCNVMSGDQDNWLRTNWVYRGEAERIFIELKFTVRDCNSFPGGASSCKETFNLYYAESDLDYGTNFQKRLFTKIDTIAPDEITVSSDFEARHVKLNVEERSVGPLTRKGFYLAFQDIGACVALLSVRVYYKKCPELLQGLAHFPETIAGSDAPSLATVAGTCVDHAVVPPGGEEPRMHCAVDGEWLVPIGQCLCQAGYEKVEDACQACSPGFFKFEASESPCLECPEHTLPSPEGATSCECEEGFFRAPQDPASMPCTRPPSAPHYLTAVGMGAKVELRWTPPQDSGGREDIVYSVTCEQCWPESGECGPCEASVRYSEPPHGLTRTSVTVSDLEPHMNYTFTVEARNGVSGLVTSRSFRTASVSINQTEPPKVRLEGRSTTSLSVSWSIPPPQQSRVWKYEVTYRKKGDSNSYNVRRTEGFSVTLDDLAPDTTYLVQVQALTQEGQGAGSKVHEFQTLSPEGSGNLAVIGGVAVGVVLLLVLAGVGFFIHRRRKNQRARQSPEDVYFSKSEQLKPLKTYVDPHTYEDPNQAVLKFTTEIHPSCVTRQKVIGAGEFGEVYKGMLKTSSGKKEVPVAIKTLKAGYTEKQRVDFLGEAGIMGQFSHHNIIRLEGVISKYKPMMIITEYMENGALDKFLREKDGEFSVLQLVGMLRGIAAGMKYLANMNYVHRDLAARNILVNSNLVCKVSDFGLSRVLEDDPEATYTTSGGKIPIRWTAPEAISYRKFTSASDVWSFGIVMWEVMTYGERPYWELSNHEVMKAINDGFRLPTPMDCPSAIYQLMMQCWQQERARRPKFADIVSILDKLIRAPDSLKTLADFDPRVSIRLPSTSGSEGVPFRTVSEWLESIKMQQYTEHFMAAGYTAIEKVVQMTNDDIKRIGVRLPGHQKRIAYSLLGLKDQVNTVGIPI
T6 sequence (P31751 whole entry): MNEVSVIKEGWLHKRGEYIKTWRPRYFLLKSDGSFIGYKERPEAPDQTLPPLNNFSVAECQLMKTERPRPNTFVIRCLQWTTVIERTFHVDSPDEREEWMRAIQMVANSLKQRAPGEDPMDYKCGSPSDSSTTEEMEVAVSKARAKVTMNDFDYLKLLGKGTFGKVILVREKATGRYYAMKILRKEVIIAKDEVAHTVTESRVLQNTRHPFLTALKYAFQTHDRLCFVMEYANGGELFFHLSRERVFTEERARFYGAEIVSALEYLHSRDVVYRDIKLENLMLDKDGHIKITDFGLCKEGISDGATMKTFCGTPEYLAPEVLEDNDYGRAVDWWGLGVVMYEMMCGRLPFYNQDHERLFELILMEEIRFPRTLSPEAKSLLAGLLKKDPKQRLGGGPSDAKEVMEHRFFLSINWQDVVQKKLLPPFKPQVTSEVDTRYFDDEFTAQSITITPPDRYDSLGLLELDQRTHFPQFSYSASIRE
T13 sequence (P48730 whole entry): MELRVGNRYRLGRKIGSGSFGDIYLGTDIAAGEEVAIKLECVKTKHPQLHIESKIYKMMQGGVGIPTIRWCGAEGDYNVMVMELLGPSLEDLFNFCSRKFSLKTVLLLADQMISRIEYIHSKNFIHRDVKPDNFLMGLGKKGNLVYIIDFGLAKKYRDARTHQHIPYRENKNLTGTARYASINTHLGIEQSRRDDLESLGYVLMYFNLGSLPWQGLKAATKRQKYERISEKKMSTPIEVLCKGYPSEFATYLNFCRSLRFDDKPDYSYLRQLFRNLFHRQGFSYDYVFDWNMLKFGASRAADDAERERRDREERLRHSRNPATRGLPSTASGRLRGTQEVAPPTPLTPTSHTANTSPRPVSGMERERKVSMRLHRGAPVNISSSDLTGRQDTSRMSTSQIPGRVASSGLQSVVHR
T4 sequence (P23443 whole entry): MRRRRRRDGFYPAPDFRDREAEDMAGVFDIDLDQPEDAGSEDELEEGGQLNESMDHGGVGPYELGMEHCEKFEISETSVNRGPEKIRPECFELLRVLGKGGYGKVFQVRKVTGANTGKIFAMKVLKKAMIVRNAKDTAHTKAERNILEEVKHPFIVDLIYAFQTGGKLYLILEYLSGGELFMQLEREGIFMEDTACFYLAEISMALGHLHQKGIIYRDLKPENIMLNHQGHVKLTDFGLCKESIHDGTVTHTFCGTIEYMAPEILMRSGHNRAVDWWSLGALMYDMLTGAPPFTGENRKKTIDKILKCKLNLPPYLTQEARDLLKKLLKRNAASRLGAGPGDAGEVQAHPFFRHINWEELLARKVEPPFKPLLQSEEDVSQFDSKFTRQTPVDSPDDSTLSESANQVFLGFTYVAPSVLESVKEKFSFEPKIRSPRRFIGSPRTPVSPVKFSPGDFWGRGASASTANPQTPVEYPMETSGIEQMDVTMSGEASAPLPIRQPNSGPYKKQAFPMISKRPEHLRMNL

CO[C@H]1CC[C@H](NC(=O)c2n[nH]cc2NC(=O)c2ccccc2)CC1 [Compound 4f, 4-Benzamido-N-(4-methoxycyclohexyl)-1H-pyrazole-3-carboxamide]
IRR activity compared to the control (IRR): 39% | SRPK1 activity compared to the control (SRPK1): 90% | MNK1 activity compared to the control (MNK1): 76% | S6K1 activity compared to the control (S6K1): 100% | MST2 activity compared to the control (MST2): 72% | remaining activity at 10 µM (PKBb): 45% | SGK1 activity compared to the control (SGK1): 89% | IR-HIS activity compared to the control (IR-HIS): 84% | PDK1 activity compared to the control (PDK1): 87% | CHK2 activity compared to the control (CHK2): 100% | EPH A2 activity compared to the control (EPH A2): 100% | P38g MAPK activity compared to the control (P38g MAPK): 60% | CK1 activity compared to the control (CK1): 55%

COc1cccc(OC)c1C(=O)Nc1c[nH]nc1C(=O)NC1CCC(OC)CC1 (stereo not drawn) [Compound 4m, 4-(2,6-Dimethoxybenzamido)-N-(4-methoxycyclohexyl)-1H-pyrazole-3-carboxamide]
IRR activity compared to the control (IRR): 87% | SRPK1 activity compared to the control (SRPK1): 78% | MNK1 activity compared to the control (MNK1): 81% | S6K1 activity compared to the control (S6K1): 100% | MST2 activity compared to the control (MST2): 81% | remaining activity at 10 µM (PKBb): 98% | SGK1 activity compared to the control (SGK1): 92% | IR-HIS activity compared to the control (IR-HIS): 99% | PDK1 activity compared to the control (PDK1): 87% | CHK2 activity compared to the control (CHK2): 75% | EPH A2 activity compared to the control (EPH A2): 100% | P38g MAPK activity compared to the control (P38g MAPK): 72% | CK1 activity compared to the control (CK1): 88%

CO[C@H]1CC[C@H](NC(=O)c2n[nH]cc2NC(=O)c2ccc(-c3ccccc3)o2)CC1 [Compound 4y, N-(4-Methoxycyclohexyl)-4-(5-phenylfuran-2-carboxamido)-1H-pyrazole-3-carboxamide]
IRR activity compared to the control (IRR): 26% | SRPK1 activity compared to the control (SRPK1): 72% | MNK1 activity compared to the control (MNK1): 82% | S6K1 activity compared to the control (S6K1): 58% | MST2 activity compared to the control (MST2): 69% | remaining activity at 10 µM (PKBb): 84% | SGK1 activity compared to the control (SGK1): 81% | IR-HIS activity compared to the control (IR-HIS): 50% | PDK1 activity compared to the control (PDK1): 86% | CHK2 activity compared to the control (CHK2): 51% | EPH A2 activity compared to the control (EPH A2): 100% | P38g MAPK activity compared to the control (P38g MAPK): 24% | CK1 activity compared to the control (CK1): 25%

Reference: article PMC4175002, “The Design and Synthesis of Potent and Selective Inhibitors of Trypanosoma brucei Glycogen Synthase Kinase 3 for the Treatment of Human African Trypanosomiasis” (Journal of Medicinal Chemistry, 2014)
